Measured values taken from patent US6399100B1, “Controlled release pharmaceutical compositions containing tiagabine” (Elan Corporation, plc, priority 1997, dated 2002).

Legend:
[1] = Aqueous solubility of raw material
Source text: The tiagabine employed in the following examples is the monohydrate crystalline form for the hydrochloride salt of the R isomer.

[2] = four hours after ingestion, deliberate overdose; cited from earlier work
[3] = cited from earlier work

SMILES	aqueous solubility [1]	Plasma levels [2] [ng/mL]	plasma level relative to typical steady state therapeutic dosing levels [2] [times]	half-life ([3]; in humans) [h]	elimination half-life ([3]; lowered by enzyme inducers) [h]
Cc1ccsc1C(=CCCN1CCCC(C(=O)O)C1)c1sccc1C.Cl (centres unmarked) [tiagabine hydrochloride monohydrate, N-(4,4-di(3-methylthien-2-yl)but-3-enyl) nipecotic acid hydrochloride]	high				
Cc1ccsc1C(=CCCN1CCCC(C(=O)O)C1)c1sccc1C (centres unmarked) [tiagabine, N-(4,4-di(3-methylthien-2-yl)but-3-enyl) nipecotic acid]		3100	30	5 to 8	2 to 3
